The record followed here is PubChem BioAssay (NCI).

Among the test systems are CCRF-CEM leukemia; COLO 205 colon; IGROV1 ovarian; LOX IMVI melanoma; NCI-H460 lung; NCI-H522 lung; OVCAR-4 ovarian; U251 CNS; NCI-H226 lung.
Experiment in all cases: growth of human tumour cells (NCI), 48 h

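A five-concentration, 48-hour dose response in 96-well plates underlies each endpoint, interpolated linearly between surrounding concentrations. The concentration for full growth arrest is given as TGI.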

As for `COc1ccc(O)c2c1C(=O)CCCC2=O`, the TGI with CCRF-CEM leukemia, with COLO 205 colon, with IGROV1 ovarian, in the test on LOX IMVI melanoma, with NCI-H460 lung and with NCI-H522 lung was greater than 100 µM each time. For the same compound, the TGI with OVCAR-4 ovarian and in the test on U251 CNS was greater than 100 µM throughout.

Turning to `CCc1cccc(C)c1NC(=O)NS(=O)(=O)c1ccc(C)cc1`, the TGI in the test on CCRF-CEM leukemia, in the test on COLO 205 colon, with IGROV1 ovarian, in the test on LOX IMVI melanoma, with NCI-H460 lung and with NCI-H522 lung was greater than 100 µM each time. The TGI with OVCAR-4 ovarian and with U251 CNS was greater than 100 µM throughout.

For the compound `COc1ccc(C(=O)C=C2NCCN2)cc1`, the TGI with CCRF-CEM leukemia, in the test on COLO 205 colon, in the test with IGROV1 ovarian, in the test on LOX IMVI melanoma, in the test with NCI-H226 lung and in the test with NCI-H460 lung was greater than 100 µM in each case. Also, the TGI in the test on NCI-H522 lung, in the test with OVCAR-4 ovarian and with U251 CNS was greater than 100 µM in each case.

Turning to `Fc1ccccc1C1CC(C(c2ccccc2)c2ccccc2)=Nc2ccccc2S1` (centres undefined), the TGI came to 5.57 µM with CCRF-CEM leukemia; 27.9 µM in the test on COLO 205 colon; 28.8 µM in the test on IGROV1 ovarian; 19.7 µM in the test on LOX IMVI melanoma; 32.6 µM with NCI-H226 lung; 23.2 µM in the test with NCI-H460 lung. In addition, the values for the TGI in the test on NCI-H522 lung, with OVCAR-4 ovarian and in the test on U251 CNS were 21.7 µM, 32.9 µM and 25.5 µM, respectively.

As to `COc1ccc(C2S/C(=C\c3ccc(OC)cc3OC)C(=O)N2NC(=O)Cc2ccccc2)cc1` (centres undefined), the TGI in the test on CCRF-CEM leukemia, with COLO 205 colon, with IGROV1 ovarian, in the test with LOX IMVI melanoma, in the test on NCI-H226 lung and in the test with NCI-H460 lung was greater than 100 µM in each case. The TGI in the test on NCI-H522 lung, with OVCAR-4 ovarian and in the test with U251 CNS was greater than 100 µM throughout.

As to `CCOC(=O)C(C[Si](C)(C)C)P(=O)(OCC)OCC` (centres undefined), the TGI with CCRF-CEM leukemia, with COLO 205 colon, in the test with IGROV1 ovarian, in the test on LOX IMVI melanoma, with NCI-H226 lung and in the test with NCI-H460 lung was greater than 100 µM throughout. For the same compound, the TGI in the test with NCI-H522 lung, in the test on OVCAR-4 ovarian and in the test on U251 CNS was greater than 100 µM each time.

As for `CC(=O)Nc1ccc(-c2nnc(SCC(=O)Nc3ccc(C)cc3)o2)cc1`, the TGI is greater than 100 µM in the test with CCRF-CEM leukemia; 31.6 µM in the test on COLO 205 colon; 28.6 µM in the test on IGROV1 ovarian; 31.8 µM in the test on LOX IMVI melanoma; 52.4 µM in the test on NCI-H226 lung; 42.7 µM in the test with NCI-H460 lung. Also, the TGI with NCI-H522 lung was determined as 33 µM; with OVCAR-4 ovarian, 32.6 µM; in the test on U251 CNS, 33.6 µM.

Regarding `COc1cccc(C2C(C(=O)Nc3cc(=O)n(C)c(=O)n3C)=C(C)NC(C)=C2C(=O)Nc2cc(=O)n(C)c(=O)n2C)c1O`, the TGI in the test on CCRF-CEM leukemia, with COLO 205 colon, with IGROV1 ovarian, in the test on LOX IMVI melanoma, with NCI-H226 lung and in the test on NCI-H460 lung was greater than 100 µM each time. For the same compound, the TGI in the test on NCI-H522 lung, in the test on OVCAR-4 ovarian and in the test on U251 CNS was greater than 100 µM throughout.

Take `Cc1nc(C(N)=S)sc1C(=O)/C=C/c1cccc(O)c1`: the TGI was 89.2 µM in the test on CCRF-CEM leukemia; greater than 100 µM in the test on COLO 205 colon; greater than 100 µM in the test with IGROV1 ovarian; greater than 100 µM with LOX IMVI melanoma; greater than 100 µM in the test with NCI-H226 lung; greater than 100 µM in the test on NCI-H460 lung. Also, the TGI in the test on NCI-H522 lung and with U251 CNS was greater than 100 µM throughout.

Take `COc1ccccc1/C=C\c1cc(OC)c(OC)c(OC)c1`: the TGI in the test on CCRF-CEM leukemia is greater than 100 µM; in the test with COLO 205 colon it was 16.9 µM; in the test on IGROV1 ovarian it was greater than 100 µM; in the test on LOX IMVI melanoma, greater than 100 µM; in the test with NCI-H226 lung it was 96.2 µM; in the test on NCI-H460 lung, greater than 100 µM. Moreover, the TGI in the test with NCI-H522 lung was 45.5 µM; in the test on OVCAR-4 ovarian, greater than 100 µM; in the test on U251 CNS it was greater than 100 µM.

Regarding `O=c1cccccc1NCCCCNc1cccccc1=O`, the TGI in the test on CCRF-CEM leukemia, in the test on COLO 205 colon, in the test on IGROV1 ovarian, in the test with LOX IMVI melanoma, with NCI-H226 lung and in the test with NCI-H460 lung was greater than 100 µM in each case. Further, the TGI with NCI-H522 lung, in the test with OVCAR-4 ovarian and in the test on U251 CNS was greater than 100 µM throughout.

With `O=C1c2cc(CCl)sc2C(=O)c2ccsc21`, the TGI is 1.22 µM in the test with CCRF-CEM leukemia; 2.68 µM with COLO 205 colon; 2.83 µM in the test with IGROV1 ovarian; 0.149 µM in the test on LOX IMVI melanoma; 3.1 µM in the test on NCI-H226 lung; 2.63 µM in the test on NCI-H460 lung. For the same compound, the values for the TGI in the test on NCI-H522 lung, in the test with OVCAR-4 ovarian and in the test on U251 CNS were 1.12 µM, 0.336 µM and 1.14 µM, respectively.

`CCOC(=O)C(C)(C)Oc1ccc2c(-c3ccc(Cl)cc3)cc(=O)oc2c1`: the TGI in the test with CCRF-CEM leukemia, in the test on COLO 205 colon, in the test on IGROV1 ovarian, in the test on LOX IMVI melanoma, with NCI-H226 lung and with NCI-H460 lung was greater than 100 µM each time. Moreover, the TGI in the test on OVCAR-4 ovarian and in the test on U251 CNS was greater than 100 µM each time.

`CCOC(=O)C12CC1(C(=O)OCC)C1CCC2C1` (centres undefined): the TGI in the test on CCRF-CEM leukemia, in the test with COLO 205 colon, in the test on IGROV1 ovarian, in the test on LOX IMVI melanoma, in the test with NCI-H226 lung and in the test with NCI-H460 lung was greater than 100 µM each time. Also, the TGI with OVCAR-4 ovarian and with U251 CNS was greater than 100 µM in each case.

Consider `COc1ccc2c(c1)CC[C@@H]1C2CC[C@]2(C)C(=O)NC(=O)CC12` (some centres undefined), for which the TGI in the test with CCRF-CEM leukemia, in the test on COLO 205 colon, in the test on IGROV1 ovarian, in the test with LOX IMVI melanoma, in the test on NCI-H226 lung and in the test with NCI-H460 lung was greater than 100 µM in each case. The TGI with NCI-H522 lung and with U251 CNS was greater than 100 µM throughout.
